# Patent US11731976B2, “3-(ethoxydifluoromethyl)-6-(5-fluoro-6-(2,2,2-trifluoroethoxy)pyridin-3-yl)-[1,2,4]triazolo[4,3-a]pyridine as an ion channel modulator” (Praxis Precision Medicines, Inc., priority 2018, dated 2023)
# Molecular target: T1, human NaV1.6 (hNaV1.6) (Homo sapiens, UniProt Q9UQD0)
# T1 construct: expressed in transfected cells; host or cells: HEK-293
# Test: Modulation of late sodium current (INaL), PatchXpress electrophysiology, HEK-293 cells expressing hNaV1.6
# Type: cell-based
# Details: HEK293, late current evoked by 300 nM ATX-II, read-out: NaV 1.6 Assay Data: percent inhibition of INaL at hNaV1.6
# Description: Functional characterization of exemplary compounds to modulate INaL expressed by the NaV1.6 voltage-gated sodium channel was accomplished using the PatchXpress™ high throughput electrophysiology platform (Molecular Devices, Sunnyvale, Calif.). HEK-293 cells expressing recombinant, human NaV1.6 (hNaV1.6) were grown in DMEM/high-glucose Dulbecco's modified, 10% FBS, 2 mM sodium pyruvate, 10 mM HEPES and 400 μg/mL G418. Cells were grown to 50%-80% confluency prior to harvesting. Trypsinized cells were washed, allowed to recover for 1 hour and then resuspended in extracellular recording solution at a concentration of 1×10^6 cells/ml. The onboard liquid handling facility of the PatchXpress was used for dispensing cells and applying test compounds. NaV late currents were evoked by the application of 300 nM ATX-II. INaL was evoked by depolarizing pulses to 0 mV for 200 ms from a non-inactivating holding potential (e.g., −120 mV) at a frequency of 0.1 Hz. INaL amplitude and stability were determined by analyzing the mean current amplitude over the final 20 ms of the test pulse. Following steady state block with exemplary compounds (e.g., as described herein), a Na+ free solution containing an impermeant cation (e.g., Choline or NDMG) was added to confirm the identify of the sodium current. Percent steady-state inhibition of INaL was calculated as: [(INaL_compound)/(INaL_control)]*100, where INaL_compound and INaL_control represent INaL recorded in the presence or absence of compound, respectively.
# T1 sequence (Q9UQD0 whole entry): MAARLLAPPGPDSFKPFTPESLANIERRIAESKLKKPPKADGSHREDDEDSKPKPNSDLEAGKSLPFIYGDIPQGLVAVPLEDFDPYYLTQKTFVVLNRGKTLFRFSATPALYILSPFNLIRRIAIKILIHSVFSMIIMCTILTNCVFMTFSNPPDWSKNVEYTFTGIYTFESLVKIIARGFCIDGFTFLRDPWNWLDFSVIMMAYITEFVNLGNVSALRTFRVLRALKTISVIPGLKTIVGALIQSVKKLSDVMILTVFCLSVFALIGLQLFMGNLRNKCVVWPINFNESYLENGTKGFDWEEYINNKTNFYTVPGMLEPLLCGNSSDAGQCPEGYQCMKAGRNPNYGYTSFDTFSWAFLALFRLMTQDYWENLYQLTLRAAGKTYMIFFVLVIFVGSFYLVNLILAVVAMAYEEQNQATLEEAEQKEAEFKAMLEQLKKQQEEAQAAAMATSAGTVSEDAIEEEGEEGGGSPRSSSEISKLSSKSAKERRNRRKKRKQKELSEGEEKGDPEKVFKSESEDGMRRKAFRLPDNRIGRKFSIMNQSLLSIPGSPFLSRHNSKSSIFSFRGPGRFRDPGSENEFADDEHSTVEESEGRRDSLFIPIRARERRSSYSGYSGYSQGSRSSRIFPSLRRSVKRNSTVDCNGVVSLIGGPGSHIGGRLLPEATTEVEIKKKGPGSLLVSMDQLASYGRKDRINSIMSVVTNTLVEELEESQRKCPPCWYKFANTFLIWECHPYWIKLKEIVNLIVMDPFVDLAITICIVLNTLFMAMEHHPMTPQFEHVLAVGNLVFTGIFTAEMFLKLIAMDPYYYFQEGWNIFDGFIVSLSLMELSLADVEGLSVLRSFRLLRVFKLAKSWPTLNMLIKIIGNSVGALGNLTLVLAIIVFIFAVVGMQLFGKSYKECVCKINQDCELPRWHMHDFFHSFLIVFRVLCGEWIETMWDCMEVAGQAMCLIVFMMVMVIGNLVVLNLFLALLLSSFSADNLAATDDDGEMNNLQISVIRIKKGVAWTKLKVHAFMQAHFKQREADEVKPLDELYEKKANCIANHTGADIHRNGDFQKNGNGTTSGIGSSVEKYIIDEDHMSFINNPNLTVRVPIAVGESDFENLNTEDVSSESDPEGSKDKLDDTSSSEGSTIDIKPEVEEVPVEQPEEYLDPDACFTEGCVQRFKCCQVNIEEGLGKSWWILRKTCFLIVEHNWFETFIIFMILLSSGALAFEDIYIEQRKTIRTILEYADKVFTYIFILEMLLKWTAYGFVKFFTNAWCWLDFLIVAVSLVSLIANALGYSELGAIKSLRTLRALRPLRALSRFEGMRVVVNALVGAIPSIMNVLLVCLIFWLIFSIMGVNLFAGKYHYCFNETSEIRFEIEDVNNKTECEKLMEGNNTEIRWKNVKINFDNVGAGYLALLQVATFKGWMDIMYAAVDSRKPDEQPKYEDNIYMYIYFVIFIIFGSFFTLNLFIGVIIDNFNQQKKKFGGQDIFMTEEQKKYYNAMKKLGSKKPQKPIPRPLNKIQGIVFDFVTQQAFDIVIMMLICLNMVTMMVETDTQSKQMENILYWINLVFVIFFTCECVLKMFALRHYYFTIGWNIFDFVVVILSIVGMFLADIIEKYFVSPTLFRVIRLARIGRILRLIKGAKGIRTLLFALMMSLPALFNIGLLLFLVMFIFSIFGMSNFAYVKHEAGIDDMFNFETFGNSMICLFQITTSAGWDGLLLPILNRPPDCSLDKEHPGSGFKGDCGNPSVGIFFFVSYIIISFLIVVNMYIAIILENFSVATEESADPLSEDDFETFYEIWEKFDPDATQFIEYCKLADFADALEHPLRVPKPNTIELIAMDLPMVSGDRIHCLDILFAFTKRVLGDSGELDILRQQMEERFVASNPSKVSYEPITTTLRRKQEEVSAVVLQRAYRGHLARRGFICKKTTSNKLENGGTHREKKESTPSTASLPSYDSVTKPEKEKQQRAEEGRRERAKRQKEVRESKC
row,SMILES,inhibition at 1 µM
1,"COCc1nnc2cnc(-c3cnc(O[C@@H](C)C(F)(F)F)c(F)c3)cn12 [Compound 38, 6-[5-fluoro-6-[(1S)-2,2,2-trifluoro-1-methyl-ethoxy]-3-pyridyl]-3-(methoxymethyl)-[1,2,4]triazolo[4,3-a]pyrazine]",30 to 70%
2,"CCOC(F)(F)c1nnc2ccc(-c3cnc(O[C@H](C)C(F)(F)F)c(F)c3)cn12 [Compound 34, 3-[ethoxy(difluoro)methyl]-6-[5-fluoro-6-[(1R)-2,2,2-trifluoro-1-methyl-ethoxy]-3-pyridyl]-[1,2,4]triazolo[4,3-a]pyridine]",> 70%
3,"CC(C)OC(F)(F)c1nnc2ccc(-c3cnc(O[C@H](C)C(F)(F)F)c(F)c3)cn12 [Compound 21, 3-[difluoro(isopropoxy)methyl]-6-[5-fluoro-6-[(1R)-2,2,2-trifluoro-1-methyl-ethoxy]-3-pyridyl]-[1,2,4]triazolo[4,3-a]pyridine]",> 70%
4,"COC(F)(F)c1nnc2cnc(-c3cnc(OCC(F)(F)F)c(F)c3)c(C)n12 [Compound 61, 3-[difluoro(methoxy)methyl]-6-[5-fluoro-6-(2,2,2-trifluoroethoxy)-3-pyridyl]-5-methyl-[1,2,4]triazolo[4,3-a]pyrazine]",30 to 70%
5,"COCc1nnc2ccc(-c3cnc(OCC(F)(F)F)c(F)c3)nn12 [Compound 35, 6-[5-fluoro-6-(2,2,2-trifluoroethoxy)-3-pyridyl]-3-(methoxymethyl)-[1,2,4]triazolo[4,3-b]pyridazine]",< 30%
6,"Fc1cc(-c2cn3c(C(F)(F)OCC4CC4)nnc3cn2)cnc1OCC(F)(F)F [Compound 9, 3-[cyclopropylmethoxy(difluoro)methyl]-6-[5-fluoro-6-(2,2,2-trifluoroethoxy)-3-pyridyl]-[1,2,4]triazolo[4,3-a]pyrazine]",> 70%
7,COC(F)(F)c1nnc2cnc(-c3ccc(OC4(C(F)(F)F)CCC4)nc3)cn12 [Compound 57],> 70%
8,"COC(F)(F)c1nnc2cc(C)c(-c3cnc(O[C@@H](C)C(F)(F)F)c(F)c3)nn12 [Compound 68, 3-[difluoro(methoxy)methyl]-6-[5-fluoro-6-[(1S)-2,2,2-trifluoro-1-methyl-ethoxy]-3-pyridyl]-7-methyl-[1,2,4]triazolo[4,3-b]pyridazine]",> 70%
9,"COC(F)(F)c1nnc2cnc(-c3ccc(OC4CC(F)(F)C4)nc3)cn12 [Compound 73, 3-(difluoro(methoxy)methyl)-6-(6-(3,3-difluorocyclobutoxy)pyridin-3-yl)-[1,2,4]triazolo[4,3-a]pyrazine]",> 70%
10,"COCc1nnc2cc(C)c(-c3cnc(OC(C)(C)C(F)(F)F)c(F)c3)nn12 [Compound 69, 6-[5-fluoro-6-(2,2,2-trifluoro-1,1-dimethyl-ethoxy)-3-pyridyl]-3-(methoxymethyl)-7-methyl-[1,2,4]triazolo[4,3-b]pyridazine]",30 to 70%
11,"C[C@@H](Oc1ncc(-c2ccc3nnc(C(F)(F)OCC4CC4)n3c2)cc1F)C(F)(F)F [Compound 25, 3-[cyclopropylmethoxy(difluoro)methyl]-6-[5-fluoro-6-[(1R)-2,2,2-trifluoro-1-methyl-ethoxy]-3-pyridyl]-[1,2,4]triazolo[4,3-a]pyridine]",> 70%
12,"CCOC(F)(F)c1nnc2cnc(-c3cnc(O[C@@H](C)C(F)(F)F)c(F)c3)c(C)n12 [Compound 67, 3-[ethoxy(difluoro)methyl]-6-[5-fluoro-6-[(1S)-2,2,2-trifluoro-1-methyl-ethoxy]-3-pyridyl]-5-methyl-[1,2,4]triazolo[4,3-a]pyrazine]",> 70%
13,"CCOC(F)(F)c1nnc2ccc(-c3cnc(O[C@@H](C)C(F)(F)F)c(F)c3)cn12 [Compound 32, 3-[ethoxy(difluoro)methyl]-6-[5-fluoro-6-[(1S)-2,2,2-trifluoro-1-methyl-ethoxy]-3-pyridyl]-[1,2,4]triazolo[4,3-a]pyridine]",> 70%
14,"CC(C)COC(F)(F)c1nnc2ccc(-c3cnc(O[C@H](C)C(F)(F)F)c(F)c3)nn12 [Compound 49, 3-[difluoro(isobutoxy)methyl]-6-[5-fluoro-6-[(1R)-2,2,2-trifluoro-1-methyl-ethoxy]-3-pyridyl]-[1,2,4]triazolo[4,3-b]pyridazine]",> 70%
15,"Fc1cc(-c2ccc3nnc(C(F)(F)OCC4CC4)n3c2)cnc1OCC(F)(F)F [Compound 1, 3-[cyclopropylmethoxy(difluoro)methyl]-6-[5-fluoro-6-(2,2,2-trifluoroethoxy)-3-pyridyl]-[1,2,4]triazolo[4,3-a]pyridine]",> 70%
16,"C[C@@H](Oc1ncc(-c2cn3c(C(F)(F)OC4CC4)nnc3cn2)cc1F)C(F)(F)F [Compound 51, 3-[cyclopropoxy(difluoro)methyl]-6-[5-fluoro-6-[(1R)-2,2,2-trifluoro-1-methyl-ethoxy]-3-pyridyl]-[1,2,4]triazolo[4,3-a]pyrazine]",> 70%
17,"CCOC(F)(F)c1nnc2ccc(-c3cnc(OC4CC(F)(F)C4)c(F)c3)cn12 [Compound 85, 6-(6-(3,3-difluorocyclobutoxy)-5-fluoropyridin-3-yl)-3-(ethoxydifluoromethyl)-[1,2,4]triazolo[4,3-a]pyridine]",> 70%
18,"CC(C)COC(F)(F)c1nnc2ccc(-c3cnc(OCC(F)(F)F)c(F)c3)cn12 [Compound 2, 3-[difluoro(isobutoxy)methyl]-6-[5-fluoro-6-(2,2,2-trifluoroethoxy)-3-pyridyl]-[1,2,4]triazolo[4,3-a]pyridine]",> 70%
19,"C[C@H](Oc1ncc(-c2cn3c(C(F)(F)OC4CC4)nnc3cn2)cc1F)C(F)(F)F [Compound 63, 3-[cyclopropoxy(difluoro)methyl]-6-[5-fluoro-6-[(1S)-2,2,2-trifluoro-1-methyl-ethoxy]-3-pyridyl]-[1,2,4]triazolo[4,3-a]pyrazine]",> 70%
20,"CC(C)OC(F)(F)c1nnc2ccc(-c3cnc(O[C@@H](C)C(F)(F)F)c(F)c3)cn12 [Compound 20, 3-[difluoro(isopropoxy)methyl]-6-[5-fluoro-6-[(1S)-2,2,2-trifluoro-1-methyl-ethoxy]-3-pyridyl]-[1,2,4]triazolo[4,3-a]pyridine]",> 70%
21,"CC(C)COC(F)(F)c1nnc2cnc(-c3cnc(O[C@@H](C)C(F)(F)F)c(F)c3)cn12 [Compound 45, 3-[difluoro(isobutoxy)methyl]-6-[5-fluoro-6-[(1S)-2,2,2-trifluoro-1-methyl-ethoxy]-3-pyridyl]-[1,2,4]triazolo[4,3-a]pyrazine]",> 70%
22,"COCc1nnc2ccc(-c3cnc(OCC(F)(F)F)c(F)c3)cn12 [Compound 29, 6-[5-fluoro-6-(2,2,2-trifluoroethoxy)-3-pyridyl]-3-(methoxymethyl)-[1,2,4]triazolo[4,3-a]pyridine]",< 30%
23,"COC(F)(F)c1nnc2ccc(-c3cnc(OC4CC(F)(F)C4)c(F)c3)cn12 [Compound 84, 3-(difluoro(methoxy)methyl)-6-(6-(3,3-difluorocyclobutoxy)-5-fluoropyridin-3-yl)-[1,2,4]triazolo[4,3-a]pyridine]",> 70%
24,COCCOC(F)(F)c1nnc2cnc(-c3ccc(OCC(F)(F)F)nc3)cn12 [Compound 89],30 to 70%
25,"CCOC(F)(F)c1nnc2cnc(-c3ccc(O[C@H](C)C(F)(F)F)nc3)cn12 [Compound 86, (R)-3-(ethoxydifluoromethyl)-6-(6-((1,1,1-trifluoropropan-2-yl)oxy)pyridin-3-yl)-[1,2,4]triazolo[4,3-a]pyrazine]",> 70%
26,"COC(F)(F)c1nnc2ccc(-c3cnc(OC4(C(F)(F)F)CCC4)c(F)c3)cn12 [Compound 18, 3-[difluoro(methoxy)methyl]-6-[5-fluoro-6-[1-(trifluoromethyl)cyclobutoxy]-3-pyridyl]-[1,2,4]triazolo[4,3-a]pyridine]",> 70%
27,"COCc1nnc2ccc(-c3cnc(O[C@@H](C)C(F)(F)F)c(F)c3)nn12 [Compound 44, 6-[5-fluoro-6-[(1S)-2,2,2-trifluoro-1-methyl-ethoxy]-3-pyridyl]-3-(methoxymethyl)-[1,2,4]triazolo[4,3-b]pyridazine]",30 to 70%
28,"CCOCc1nnc2cnc(-c3cnc(OC(C)(C)C(F)(F)F)c(F)c3)cn12 [Compound 79, 3-(ethoxymethyl)-6-(5-fluoro-6-((1,1,1-trifluoro-2-methylpropan-2-yl)oxy)pyridin-3-yl)-[1,2,4]triazolo[4,3-a]pyrazine]",> 70%
29,"COCc1nnc2ccc(-c3cnc(O[C@H](C)C(F)(F)F)c(F)c3)nn12 [Compound 46, 6-[5-fluoro-6-[(1R)-2,2,2-trifluoro-1-methyl-ethoxy]-3-pyridyl]-3-(methoxymethyl)-[1,2,4]triazolo[4,3-b]pyridazine]",30 to 70%
30,"COC(F)(F)c1nnc2cc(C)c(-c3cnc(OCC(F)(F)F)c(F)c3)nn12 [Compound 65, 3-[difluoro(methoxy)methyl]-6-[5-fluoro-6-(2,2,2-trifluoroethoxy)-3-pyridyl]-7-methyl-[1,2,4]triazolo[4,3-b]pyridazine]",30 to 70%
